In US7985415B2, “Medical devices employing novel polymers” (Rutgers, The State University of New Jersey, priority 1997, dated 2011):

System: coronary arteries
Assay: Swine stent model: coated stents implanted in coronary arteries, light microscopy and morphometry
Conditions: for Stenosis (%): (Neointimal Area/IEL Area)x100; for EEL Area / IEL Area / Intimal Area / Intimal Thick. / Lumen Area: PolySAID II coating alone or with 20% added drug by weight
Text: A total of 8 stents were implanted in the coronary arteries of 3 miniswine for 28 days. The stent implants were Polymerix [nicknamed MARGI] 15 mm in length with an unexpanded diameter of 1.6 mm.
All stents were processed for light microscopic evaluation. Before processing, the vessels and hearts were x-rayed to locate and assess stent placement. For processing, the stented vessel segments were dehydrated in a graded series of ethanol and embedded in methylmethacrylate plastic. After polymerization, two to three millimeter sections were sawed from the proximal, mid and distal portions of each stent. Sections from the stents were cut on a rotary microtome at four to five microns, mounted and stained with hematoxylin and eosin and elastic Van Gieson stains. All sections were examined by light microscopy for the presence of inflammation, thrombus, neointimal formation, vessel wall injury and potential localized toxic effects associated with drug-coated stents.
Myocardial sections were taken from the anterior, lateral, posterior and septal walls of the left ventricle distal to the stent and from the apical region of the left ventricle. To determine localized affects of the polymer and/or drug, the myocardium was also sampled beneath the area of stent placement. All sections were cut at 4-6 microns; mounted and stained with hematoxylin and eosin and examined for the presence of infarct, thromboembolus and inflammation.
A vessel injury score was calculated according to the Schwartz method. The cross-sectional areas (external elastic lamina [EEL], internal elastic lamina [IEL] and lumen) of each section were measured with digital morphometry. Neointimal thickness was measured as the distance from the inner surface of each stent strut to the luminal border. Percent area stenosis was calculated with the formula [(Neointimal Area/IEL Area)×100]. Ordinal data was also collected for fibrin deposition and inflammation and hemorrhage around the stent struts and percent endothelialization of the lumen surfaces. Values are expressed as mean±SD. Mean variables were compared between the groups with the use of ANOVA with Fishers Post Hoc Correction for analysis of the data. A value of P≦0.05 was considered statistically significant.

[1] = miniswine coronary arteries, stents 28 days

Row | SMILES | % Struts (Fibrin) [1] | % Struts Hemorrhage [1] | % Struts with underlying medial necrosis [1] | Ave Inflammation score [1] | light microscopy findings (vessel healing, neointima) [1] | Stenosis (%) [1] | EEL Area [1] | IEL Area [1] | Intimal Area [1] | Intimal Thick. [1] | Lumen Area [1] | Injury Score (miniswine coronary arteries, stents 28 days, Schwartz method) | light microscopy findings (vessel healing, neointima) (in vivo) | % Struts (Fibrin) (miniswine, in vivo, 28 days) | % Struts Hemorrhage (miniswine, in vivo, 28 days) | % Struts with underlying medial necrosis (miniswine, in vivo, 28 days) | Ave Inflammation score (miniswine, in vivo, 28 days) | Injury Score (miniswine, in vivo, 28 days)
1 | CC(=O)O[C@H]1C(=O)[C@@]2(C)[C@H]([C@H](OC(=O)c3ccccc3)[C@]3(O)C[C@H](OC(=O)[C@H](O)[C@@H](NC(=O)c4ccccc4)c4ccccc4)C(C)=C1C3(C)C)[C@]1(OC(C)=O)CO[C@@H]1C[C@@H]2O [Paclitaxel, paclitaxel] | 100% | 100% | 8.67 ± 3.51% | 2.0 | malapposition with underlying medial necrosis with extensive accumulation of fibrin, hemorrhage, and inflammatory cells around the stent struts | 27.21 ± 17.11% | 8.41 ± 2.95 mm2 | 6.84 ± 2.56 mm2 | 2.14 ± 2.10 mm2 | 0.05 ± 0.01 mm | 4.70 ± 0.64 mm2 | 0.35 ± 0.48 | – | – | – | – | – | –
2 | CO[C@H]1C[C@@H]2CC[C@@H](C)[C@@](O)(O2)C(=O)C(=O)N2CCCC[C@H]2C(=O)O[C@H]([C@H](C)C[C@@H]2CC[C@@H](O)[C@H](OC)C2)CC(=O)[C@H](C)/C=C(\C)[C@@H](O)[C@@H](OC)C(=O)[C@H](C)C[C@H](C)/C=C/C=C/C=C/1C [Sirolimus, sirolimus] | – | – | – | – | – | 20.31 ± 10.1% | 6.07 ± 0.61 mm2 | 4.78 ± 0.39 mm2 | 0.96 ± .50 mm2 | 0.10 ± 0.05 mm | 3.81 ± 0.62 mm2 | – | less neointimal growth and were more healed than those coated with paclitaxel | 57.78 ± 43.47% | 28.33 ± 30.14% | 0.68 ± 0.68% | 2.3 ± 0.58 | 0.45 ± 0.69
